{"source": "patent US20090131354A1", "about": "“miR-126 REGULATED GENES AND PATHWAYS AS TARGETS FOR THERAPEUTIC INTERVENTION” (priority 2007, published 2009)", "type_in_all_cases": "cell-based, human", "key": {"Calu-3 lung cancer cells": {"tested_on": "Calu-3 lung cancer cells", "assay": "Alamar Blue proliferation assay, Calu-3", "excerpt": "(§1) The inventors assessed the therapeutic effect of hsa-miR-126 for lung cancer by using 11 individual lung cancer cell lines. To measure cellular proliferation of lung cancer cells, the following non-small cell lung cancer (NSCLC) cells were used: cells derived from lung adenocarcinoma (A549, H1299, H522, H838, Calu-3, HCC827, HCC2935), cells derived from lung squamous cell carcinoma (H520, H226), cells derived from lung bronchioalveolar carcinoma (H1650), and cells derived from lung large cell carcinoma (H460). Synthetic hsa-miR-126 (Pre-miR™-hsa-miR-126, Ambion cat. no. AM17100) or negative control (NC) miRNA (Pre-miR™ microRNA Precursor Molecule-Negative Control #2; Ambion cat. no. AM17111) was delivered via lipid-based transfection into A549, H1299, H522, H838, Calu-3, HCC827, HCC2935, H520, H1650, and H460 cells, and via electroporation into H226 cells.\nElectroporation of H226 cells was carried out using the BioRad Gene Pulser Xcell™ instrument (BioRad Laboratories Inc., Hercules, Calif., USA) with the following settings: 5×10^6 cells with 5 μg miRNA in 200 μl OptiMEM (1.6 μM miRNA), square wave pulse at 250 V for 5 ms. Electroporated H226 cells were seeded at 7,000 cells per 96-well in a total volume of 100 μl. All cells except for Calu-3 cells were harvested 72 hours post transfection or electroporation for assessment of cellular proliferation. Calu-3 cells were harvested 10 days post transfection. Proliferation assays were performed using Alamar Blue (Invitrogen) following the manufacturer's instructions. As a control for inhibition of cellular proliferation, siRNA against the motor protein kinesin 11, also known as Eg5, was used. Eg5 is essential for cellular survival of most eukaryotic cells and a lack thereof leads to reduced cell proliferation and cell death (Weil et al., 2002). siEg5 was used in lipid-based transfection following the same experimental parameters that apply to miRNA. The inventors also used a DNA topoisomerase II inhibitor, etoposide, at a final concentration of 10 μM and 50 μM as an internal standard for the potency of miRNAs. […]"}, "A549 lung cancer cells": {"tested_on": "A549 lung cancer cells", "assay": "Alamar Blue proliferation assay, A549", "excerpt": "as §1\n(§2) Lipid-based reverse transfections were carried out in triplicate according to a published protocol (Ovcharenko et al., 2005) and the following parameters: Cells (5,000-12,000 per 96 well), 0.1-0.2 μl Lipofectamine™ 2000 (cat. no. 11668-019, Invitrogen Corp., Carlsbad, Calif., USA) in 20 μl OptiMEM (Invitrogen), 30 nM final concentration of miRNA in 100 μl. Electroporation of H226 cells was carried out using the BioRad Gene Pulser Xcell™ instrument (BioRad Laboratories Inc., Hercules, Calif., USA) with the following settings: 5×10^6 cells with 5 μg miRNA in 200 μl OptiMEM (1.6 μM miRNA), square wave pulse at 250 V for 5 ms. Electroporated H226 cells were seeded at 7,000 cells per 96-well in a total volume of 100 μl. All cells except for Calu-3 cells were harvested 72 hours post transfection or electroporation for assessment of cellular proliferation. Calu-3 cells were harvested 10 days post transfection. Proliferation assays were performed using Alamar Blue (Invitrogen) following the manufacturer's instructions. As a control for inhibition of cellular proliferation, siRNA against the motor protein kinesin 11, also known as Eg5, was used. […]"}, "H1299 lung cancer cells": {"tested_on": "H1299 lung cancer cells", "assay": "Alamar Blue proliferation assay, H1299", "conditions": "relative to NC miRNA (100%)", "excerpt": "as §1, §2"}, "HCC827 lung cancer cells": {"tested_on": "HCC827 lung cancer cells", "assay": "Alamar Blue proliferation assay, HCC827", "conditions": "relative to NC miRNA (100%)", "excerpt": "as §1, §2"}, "H460 lung cancer cells": {"tested_on": "H460 lung cancer cells", "assay": "Alamar Blue proliferation assay, H460", "conditions": "for % proliferation: relative to NC miRNA (100%)", "excerpt": "as §1\nLipid-based reverse transfections were carried out in triplicate according to a published protocol (Ovcharenko et al., 2005) and the following parameters: Cells (5,000-12,000 per 96 well), 0.1-0.2 μl Lipofectamine™ 2000 (cat. no. 11668-019, Invitrogen Corp., Carlsbad, Calif., USA) in 20 μl OptiMEM (Invitrogen), 30 nM final concentration of miRNA in 100 μl. Electroporation of H226 cells was carried out using the BioRad Gene Pulser Xcell™ instrument (BioRad Laboratories Inc., Hercules, Calif., USA) with the following settings: 5×10^6 cells with 5 μg miRNA in 200 μl OptiMEM (1.6 μM miRNA), square wave pulse at 250 V for 5 ms. Electroporated H226 cells were seeded at 7,000 cells per 96-well in a total volume of 100 μl. All cells except for Calu-3 cells were harvested 72 hours post transfection or electroporation for assessment of cellular proliferation. Calu-3 cells were harvested 10 days post transfection. Proliferation assays were performed using Alamar Blue (Invitrogen) following the manufacturer's instructions. As a control for inhibition of cellular proliferation, siRNA against the motor protein kinesin 11, also known as Eg5, was used. Eg5 is essential for cellular survival of most eukaryotic cells and a lack thereof leads to reduced cell proliferation and cell death (Weil et al., 2002). siEg5 was used in lipid-based transfection following the same experimental parameters that apply to miRNA. The inventors also used a DNA topoisomerase II inhibitor, etoposide, at a final concentration of 10 μM and 50 μM as an internal standard for the potency of miRNAs. Etoposide is an FDA-approved DNA topoisomerase II inhibitor in the treatment of lung cancer. […] Percent (%) proliferation values from the Alamar Blue assay were normalized to values from cells treated with negative control miRNA. […]"}, "H522 lung cancer cells": {"tested_on": "H522 lung cancer cells", "assay": "Alamar Blue proliferation assay, H522", "conditions": "relative to NC miRNA (100%)", "excerpt": "as §1, §2"}, "H838 lung cancer cells": {"tested_on": "H838 lung cancer cells", "assay": "Alamar Blue proliferation assay, H838", "conditions": "relative to NC miRNA (100%)", "excerpt": "as §1, §2"}, "H520 lung cancer cells": {"tested_on": "H520 lung cancer cells", "assay": "Alamar Blue proliferation assay, H520", "excerpt": "as §1, §2"}}}
{"compound": "COc1cc([C@@H]2c3cc4c(cc3[C@@H](O[C@@H]3O[C@@H]5CO[C@@H](C)O[C@H]5[C@H](O)[C@H]3O)[C@H]3COC(=O)[C@H]23)OCO4)cc(OC)c1O", "note": "[etoposide]", "values": [{"measurement": "% proliferation", "setting": "Calu-3 lung cancer cells; Calu-3, 10 μM, relative to NC miRNA (100%)", "result": 20.81, "unit": "%"}, {"measurement": "% proliferation", "setting": "Calu-3 lung cancer cells; Calu-3, relative to NC miRNA (100%)", "result": 13.53, "unit": "%"}, {"measurement": "% proliferation", "setting": "A549 lung cancer cells; A549, 50 μM, relative to NC miRNA (100%)", "result": 42.18, "unit": "%"}, {"measurement": "% proliferation", "setting": "A549 lung cancer cells; A549, relative to NC miRNA (100%)", "result": 49.13, "unit": "%"}, {"measurement": "% proliferation", "setting": "H1299 lung cancer cells; H1299, 10 μM", "result": 79.65, "unit": "%"}, {"measurement": "% proliferation", "setting": "H1299 lung cancer cells; H1299, 50 μM", "result": 54.38, "unit": "%"}, {"measurement": "% proliferation", "setting": "HCC827 lung cancer cells; HCC827, 30 nM", "result": 82.53, "unit": "%"}, {"measurement": "% proliferation", "setting": "HCC827 lung cancer cells; HCC827, 10 μM", "result": 98.95, "unit": "%"}, {"measurement": "% proliferation", "setting": "H460 lung cancer cells; H460, 10 μM", "result": 32.13, "unit": "%"}, {"measurement": "% proliferation", "setting": "H460 lung cancer cells; H460, 50 μM", "result": 27.82, "unit": "%"}, {"measurement": "% proliferation", "setting": "H522 lung cancer cells; H522, 10 μM", "result": 82.13, "unit": "%"}, {"measurement": "% proliferation", "setting": "H522 lung cancer cells; H522, 50 μM", "result": 61.08, "unit": "%"}, {"measurement": "% proliferation", "setting": "H838 lung cancer cells; H838, 30 nM", "result": 89.71, "unit": "%"}, {"measurement": "% proliferation", "setting": "H838 lung cancer cells; H838, 50 μM", "result": 36.97, "unit": "%"}, {"measurement": "% proliferation", "setting": "H520 lung cancer cells; H520, 50 μM, relative to NC miRNA (100%)", "result": 48.53, "unit": "%"}, {"measurement": "% proliferation", "setting": "H520 lung cancer cells; H520, relative to NC miRNA (100%)", "result": 66.80, "unit": "%"}]}
{"compound": "hsa-miR-126 (UCGUACCGUGAGUAAUAAUGC; synthetic pre-miR form, further chemistry not given here) [Synthetic hsa-miR-126 (Pre-miR™-hsa-miR-126, Ambion cat. no. AM17100)]", "values": [{"measurement": "% proliferation", "setting": "Calu-3 lung cancer cells; Calu-3, 30 nM, 10 days, relative to NC miRNA (100%)", "result": 65.05, "unit": "%"}, {"measurement": "% proliferation", "setting": "A549 lung cancer cells; A549, 30 nM, 72 h, relative to NC miRNA (100%)", "result": 84.30, "unit": "%"}, {"measurement": "% proliferation", "setting": "H1299 lung cancer cells; H1299, 30 nM, 72 h", "result": 89.37, "unit": "%"}, {"measurement": "% proliferation", "setting": "HCC827 lung cancer cells; HCC827, 30 nM, 72 h", "result": 84.31, "unit": "%"}, {"measurement": "reduction of proliferation (maximal inhibitory activity)", "setting": "H460 lung cancer cells; H460, 30 nM", "result": 71, "unit": "%"}, {"measurement": "% proliferation", "setting": "H460 lung cancer cells; H460, 30 nM, 72 h", "result": 29.09, "unit": "%"}, {"measurement": "% proliferation", "setting": "H522 lung cancer cells; H522, 30 nM, 72 h", "result": 74.62, "unit": "%"}, {"measurement": "% proliferation", "setting": "H838 lung cancer cells; H838, 30 nM, 72 h", "result": 74.05, "unit": "%"}, {"measurement": "% proliferation", "setting": "H520 lung cancer cells; H520, 30 nM, 72 h, relative to NC miRNA (100%)", "result": 80.99, "unit": "%"}]}
